Like-named read-outs stand apart in the source and are kept apart here. Values belong to the compound of their own block, whether it stands above or below them.
Assays:
wild-type HIV virus = settings: cited from earlier work
[1] = non-compartmental analysis; ref [13]; cited from earlier work
[2] = Population pharmacokinetic co-modelling of blood plasma; settings: female, human
[3] = female, human, in vivo
[4] = Model-predicted AUCτ in BP and CVF and CVF:BP AUC ratios; format: in vivo, HIV-infected pre-menopausal women
[5] = cited from earlier work
[6] = female, human, in vivo, CVF AUCτ:BP AUCτ ratio
[7] = female, human, in vivo, CVF AUCτ:BP fAUCτ ratio
[8] = first dose, median (25th, 75th percentiles), model-predicted
[9] = multiple dose, median (25th, 75th percentiles), model-predicted

SMILES: COC(=O)N[C@H](C(=O)N[C@@H](Cc1ccccc1)[C@@H](O)CN(Cc1ccc(-c2ccccn2)cc1)NC(=O)[C@@H](NC(=O)OC)C(C)(C)C)C(C)(C)C [Atazanavir, atazanavir]
IC50 (concentration producing 50 % inhibition of wild-type HIV virus) (wild-type HIV virus; ref [15]): 11 ng/mL | penetration / exposure in CVF relative to BP (in words) [1]: moderately penetrative | Vd ([2]; in vivo): 10.4 L | ka,FD (first-order absorption rate constant, first dose) [3]: 0.879 (79.5) [29.0] h^−1 | tauFD (transit compartment transfer rate constant BP to CVF, first dose) [3]: 0.773 (145) [52.8] h^−1 | tauMD (transit compartment transfer rate constant BP to CVF, multiple dose) [3]: 1.41 (216) [85.2] h^−1 | AUC ([4]; female, human, in vivo, BP AUCτ, first dose, median (25th, 75th percentiles), model-predicted): 25.3 ng·h/mL | AUC ([4]; female, human, in vivo, BP AUCτ, multiple dose, median (25th, 75th percentiles), model-predicted): 54.6 ng·h/mL | AUC ([4]; female, human, in vivo, CVF AUCτ, first dose, median (25th, 75th percentiles), model-predicted): 5.66 ng·h/mL | AUC ([4]; female, human, in vivo, CVF AUCτ, multiple dose, median (25th, 75th percentiles), model-predicted): 5.53 ng·h/mL | Kp [4, 6]: 0.299 | Kp [4, 7]: 2.14 | BP fAUCτ (unbound) [4, 8]: 3.55 (0.867, 6.15) μg•h/L | BP fAUCτ (unbound) [4, 9]: 7.64 (1.61, 9.54) μg•h/L

SMILES: O=C1Nc2ccc(Cl)cc2[C@@](C#CC2CC2)(C(F)(F)F)O1 [Efavirenz, efavirenz]
IC50 (concentration producing 50 % inhibition of wild-type HIV virus) (wild-type HIV virus; ref [36]): 0.51 ng/mL | penetration / exposure in CVF relative to BP (in words) [1]: very low penetration into CVF | Vd ([2]; cervicovaginal fluid, oral): 2.55 L | ka,FD (first-order absorption rate constant, first dose) [3]: 1.75 (52.7) [18.9] h^−1 | ka,MD (first-order absorption rate constant, multiple dose) [3]: 0.945 (139) [54.0] h^−1 | tauFD (transit compartment transfer rate constant BP to CVF, first dose) [3]: 0.866 (208) [77.5] h^−1 | tauMD (transit compartment transfer rate constant BP to CVF, multiple dose) [3]: 0.383 (156) [55.8] h^−1 | estimated fu (protein-unbound fraction in blood) ([5]; used in the model to control drug transfer into CVF, ref [14]–[17]): 0.01 | AUC ([4]; female, human, CVF, oral, CVF AUCτ, multiple dose, median (25th, 75th percentiles), model-predicted): 0.262 ng·h/mL | AUC ([4]; female, human, cervicovaginal fluid, oral, CVF AUCτ, first dose, median (25th, 75th percentiles), model-predicted): 0.0127 ng·h/mL | CVF AUCτ:BP fAUCτ ratio ([4]; female, human, in vivo): 0.527 (0.298, 1.28) | Kp [4, 6]: 0.00527 | AUC ([4]; female, human, plasma, oral, BP AUCτ, first dose, median (25th, 75th percentiles), model-predicted): 24.5 ng·h/mL | AUC ([4]; female, human, plasma, oral, BP AUCτ, multiple dose, median (25th, 75th percentiles), model-predicted): 46.7 ng·h/mL | BP fAUCτ (unbound) [4, 8]: 0.245 (0.161, 0.303) μg•h/L | BP fAUCτ (unbound) [4, 9]: 0.470 (0.339, 1.06) μg•h/L

CVF AUCτ ([4]; female, human, in vivo, 150 mg): 10.0 (6.07, 48.9) μg•h/L | AUC ([4]; female, human, in vivo, 150 mg, BP AUCτ): 3.86 ng·h/mL | AUC ([4]; female, human, in vivo, 300 mg, BP AUCτ): 10.1 ng·h/mL | AUC ([4]; female, human, in vivo, 300 mg, CVF AUCτ): 62.2 ng·h/mL
SMILES: Nc1ccn([C@@H]2CS[C@H](CO)O2)c(=O)n1 [Lamivudine, lamivudine]
protein binding ([5]; ref [17]): 40%

ka,FD (first-order absorption rate constant, first dose) [3]: 1.72 (61.1) [99.8] h^−1 | ka,MD (first-order absorption rate constant, multiple dose) [3]: 1.05 (69.8) [30.0] h^−1 | kg12 (transfer rate constant from CVF compartment 1 to 2) [3]: 0.525 (203) [63.6] h^−1 | kg21 (transfer rate constant from CVF compartment 2 to 1) [3]: 0.323 (97.6) [60.7] h^−1 | tauFD (transit compartment transfer rate constant BP to CVF, first dose) [3]: 1.53 (106) [71.1] h^−1 | tauMD (transit compartment transfer rate constant BP to CVF, multiple dose) [3]: 1.24 (103) [130] h^−1 | BP fAUCτ (unbound) ([4]; female, human, in vivo): 2.38 (1.59, 4.35) μg•h/L | AUC ([4]; female, human, in vivo, BP AUCτ): 2.56 ng·h/mL | AUC ([4]; female, human, in vivo, CVF AUCτ): 4.18 ng·h/mL | Kp [4, 6]: 1.57 | Kp [4, 7]: 1.68
SMILES: C[C@H](Cn1cnc2c(N)ncnc21)OCP(=O)(O)O [Tenofovir, tenofovir]
protein binding ([5]; ref [16]): < 7%

— article PMC3508718 (Clinical pharmacokinetics, 2012)
